Reference: patent US8143025B2, “Antibodies against vascular endothelial growth factor receptor-1” (ImClone LLC, priority 2004, dated 2012)
“Also recorded” adds a separate entry of the source.

Key:
[1] = target: VEGFR-I (Homo sapiens, UniProt P17948); assay: VEGFR-I phosphorylation assay, PAE-VEGFR-I cells; type: cell-based; set-up: host or cells: porcine aorta endothelial (PAE) cells; details: PAE-VEGFR-I transfectant, compared to untreated control, FIG. 10
Experimental: Confluent porcine aorta endothelial VEGFR-I expressing (PAE-VEGFR-I) cells and BT474 human breast carcinoma cells were cultured in serum-depleted F12 medium for 48 hours. The cells were then preincubated with anti-VEGFR-I antibody clone 18F1 at concentrations ranging from 0.1 to 30 μg/ml for 1 hour followed by stimulating with VEGF or PlGF for 5 minutes at 37° C. The cells were then rinsed with ice-cold PBS and lysed in lysis buffer (50 mM HEPES, 150 mM NaCl, 1% Triton X-100, and 10% glycerol containing 1 mM phenylmethylsulfonyl fluoride, 10 μg/ml aprotinin, 10 μg/ml leupeptin, and 1 mM sodium vanadate). Cell lysates were subjected to SDS-PAGE and transferred onto Immobilon membranes (Millipore Corp. Billerica, Mass.). […]
Autophosphorylation of the VEGFR-I induced by its ligands and resulting activation of a classical MAPK, extracellular signal-regulated protein kinases 1Z2 (ERK1Z2) and the PBK/Atk downstrean signaling pathways mediate cellular biological responses such as proliferation, motility, survival, and differentiation. The ability of an anti-VEGFR-1 antibody to inhibit phosphorylation of VEGFR-I and activation of ERK1 Z2 and the Akt kinases downstream signaling were determined by using the PAE-VEGFR-I transfectant and BT474 breast carcinoma cells. […]

[2] = test system: DLD-I xenograft; assay: DLD-I colon cancer xenograft; type: in vivo, mouse; details: monotherapy, FIG. 26B
Experimental: Female athymic nu/nu mice, 6-8 weeks of age, were injected subcutaneously on the lateral dorsal surface with 0.4 mL volume of a suspension containing a human tumor cell line in media, diluted 1:1 with MATRIGEL™ (BD Biosciences). The cell lines used in xenograft models, with the cell doses indicated in parenthesis (10^6 cells/mouse), were: human colon carcinoma cell lines DLD-I (5), GEO (5) and HT-29 (5); human breast carcinoma cell lines DU4475 (2), MDA-MB-231 (5), MDA-MB-435 (5), and BT474 (5). When tumors reached approximately 200-300 mm^3, mice were randomized by tumor size and divided into treatment groups. Tumor growth was evaluated approximately twice weekly, with tumor volume calculated as π/6* (Length*Width^2), where Length=longest diameter and Width=diameter perpendicular to Length. Tumor dimensions were measured with calipers. T/C % was calculated as 100*(Final Treatment Tumor Volume/Initial Treatment Tumor Volume)/(Final Control Tumor Volume/Initial Control Tumor Volume).
18F1 was diluted in 0.9% USP saline (Braun) or phosphate buffered saline (PBS) and administered intraperitoneally in a volume of 0.5 mL per mouse. The effect of treatment on tumor growth was analyzed using repeated measures analysis of variance (RM ANOVA), p<0.05 was considered significant.

[3] = test system: Akt; assay: Akt phosphorylation Western blot, BT474 cells; type: cell-based, human; details: BT474 breast cancer cells, FIG. 15
Experimental: Autophosphorylation of the VEGFR-I induced by its ligands and resulting activation of a classical MAPK, extracellular signal-regulated protein kinases 1Z2 (ERK1Z2) and the PBK/Atk downstrean signaling pathways mediate cellular biological responses such as proliferation, motility, survival, and differentiation. The ability of an anti-VEGFR-1 antibody to inhibit phosphorylation of VEGFR-I and activation of ERK1 Z2 and the Akt kinases downstream signaling were determined by using the PAE-VEGFR-I transfectant and BT474 breast carcinoma cells.
For evaluation of MAPK and Akt phosphorylation, BT474 cells were seeded at a density of 5×10^5/well in 12 well plates in serum-free conditions for 18 hours. Cells were treated at 37° C. with anti-VEGFR-1 antibody clone 18F1 or isotype control for 1 hour and then incubated with 50 ng/ml of VEGF or 100 ng/ml of PlGF for 5-10 minutes. Cell lysis, protein isolation and electroblotting were performed. Membranes were incubated with antibodies against phosphorylated p44/p42 MAP kinases (Thr202/Tyr204, Santa Cruz Biotechnology, Santa Cruz, Calif.) or phosphorylated Akt (Ser473, Cell Signaling Technology, Beverly, Mass.), at a concentration of 1 μg/ml, followed by incubation with a secondary IgG-HRP (1:5000). […]

[4] = test system: MDA-MB-231 xenograft; assay: MDA-MB-231 breast tumor xenograft; type: in vivo, mouse
Experimental: Mice in control groups received an equal volume of saline solution. Treatment of animals was continued for the duration of the experiment. Tumors were measured twice each week with calipers. Tumor volumes were calculated using the formula [π/6 (w1×w2×w2)], where “w1” represents the largest tumor diameter and “w2” represents the smallest tumor diameter. […] When tumors reached approximately 200-300 mm^3, mice were randomized by tumor size and divided into treatment groups. Tumor growth was evaluated approximately twice weekly, with tumor volume calculated as π/6* (Length*Width^2), where Length=longest diameter and Width=diameter perpendicular to Length. Tumor dimensions were measured with calipers. T/C % was calculated as 100*(Final Treatment Tumor Volume/Initial Treatment Tumor Volume)/(Final Control Tumor Volume/Initial Control Tumor Volume). […] The effect of treatment on tumor growth was analyzed using repeated measures analysis of variance (RM ANOVA), p<0.05 was considered significant. […] Antibody treatments administered at a constant dose per mouse were administered in a volume of 0.5 mL per mouse. Antibody and cytotoxic treatments administered at a dose proportional to body weight were given in a volume of 10 μL per gram body weight. […] AU treatments were administered i.p. The effect of treatments on tumor growth were analyzed using repeated measures analysis of variance (RM ANOVA), p<0.05 was considered significant.

Chain of VEGFR-I (P17948 27-1338): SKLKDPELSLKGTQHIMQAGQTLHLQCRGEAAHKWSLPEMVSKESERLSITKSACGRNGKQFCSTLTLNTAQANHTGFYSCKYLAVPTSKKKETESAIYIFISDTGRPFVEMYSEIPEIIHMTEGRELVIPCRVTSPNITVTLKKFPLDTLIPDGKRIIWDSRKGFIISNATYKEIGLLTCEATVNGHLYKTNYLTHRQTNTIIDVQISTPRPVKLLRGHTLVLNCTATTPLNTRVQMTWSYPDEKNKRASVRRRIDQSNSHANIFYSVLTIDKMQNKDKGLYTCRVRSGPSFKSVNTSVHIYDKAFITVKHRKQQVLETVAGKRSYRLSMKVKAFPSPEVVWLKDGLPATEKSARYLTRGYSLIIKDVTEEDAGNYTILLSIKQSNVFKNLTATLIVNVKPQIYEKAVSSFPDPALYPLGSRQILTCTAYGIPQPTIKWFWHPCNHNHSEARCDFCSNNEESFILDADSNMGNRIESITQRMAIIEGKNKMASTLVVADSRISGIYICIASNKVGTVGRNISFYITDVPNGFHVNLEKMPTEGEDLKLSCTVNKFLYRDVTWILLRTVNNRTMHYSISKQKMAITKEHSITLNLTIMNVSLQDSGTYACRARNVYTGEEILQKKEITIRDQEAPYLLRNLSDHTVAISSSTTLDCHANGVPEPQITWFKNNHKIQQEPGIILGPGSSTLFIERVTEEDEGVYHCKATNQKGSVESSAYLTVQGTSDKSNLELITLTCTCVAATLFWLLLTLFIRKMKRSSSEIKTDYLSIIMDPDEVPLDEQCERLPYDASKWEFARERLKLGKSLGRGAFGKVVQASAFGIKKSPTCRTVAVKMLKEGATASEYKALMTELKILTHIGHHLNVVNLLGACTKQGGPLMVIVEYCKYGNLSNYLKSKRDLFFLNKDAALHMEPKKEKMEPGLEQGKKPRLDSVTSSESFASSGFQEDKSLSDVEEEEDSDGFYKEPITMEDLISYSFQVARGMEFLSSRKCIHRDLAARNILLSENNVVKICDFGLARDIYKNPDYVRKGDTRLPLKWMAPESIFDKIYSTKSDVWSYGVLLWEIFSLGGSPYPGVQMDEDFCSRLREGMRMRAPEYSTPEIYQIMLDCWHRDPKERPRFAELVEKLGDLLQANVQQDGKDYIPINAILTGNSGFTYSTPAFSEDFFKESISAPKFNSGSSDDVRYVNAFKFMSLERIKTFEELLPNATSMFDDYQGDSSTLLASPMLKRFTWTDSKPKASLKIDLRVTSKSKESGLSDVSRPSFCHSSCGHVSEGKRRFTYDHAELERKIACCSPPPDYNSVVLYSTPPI

“18F1: human anti-VEGFR-1 monoclonal antibody clone; VL SEQ ID NO: 16, VH SEQ ID NO: 20 [Clone 18F1]” was tested, and the “PlGF-stimulated phosphorylation of VEGFR-I” value [1] was “significantly reduced; also recorded: reduction”, the “antitumor effect against DLD-I colon cancer xenografts” value [2] was “significant antitumor effect” and the “PlGF or VEGF-stimulated phosphorylation of Akt” value [3] was “significantly blocked”. The “tumor growth of the MDA-MB-231 xenograft” value ([4]; 0.5 or 1 mg per dose three times each week, ANOVA p<0.05, FIG. 20B) was “statistically significant suppression”, the “growth of MDA-MB-231 xenograft tumors” value ([4]; Example 9, intraperitoneal, p<0.05) was “significantly (p<0.05) suppressed” and the “tumor growth inhibition, MDA-MB-231 xenograft” value ([4]; Example 11, p<0.05, FIG. 28A) was “significant tumor growth inhibition”.
